Assays:
Parkin = Parkin (Homo sapiens (Human), UniProt O60260); assay: Primary HCI assay of EGFP-Parkin translocation to mitochondria; assay type: cell-based; conditions: primary assay screen, Parkin translocation to mitochondria
Procedure: GFP-Parkin is localized throughout the cell in unstressed cells but translocates to mitochondria when the mitochondrial membrane potential is compromised and Parkin is activated. After automated image acquisition of fixed cells, regions of interest of each cell were defined with the analysis software. […] To quantify the relocalization of GFP-Parkin to mitochondria, the ratio of the GFP intensity in the cytoplasm and the nucleus was calculated. Under non-stressed condition, this ratio is about 1. FIG. 1B is a bar graph showing the results of the assay with a Z factor (Z′) of 0.5-0.8, which indicates its robustness and usefulness as a screening assay. Validation of the assay has been performed by using PINK1 siRNA.
FIGS. 2A-2C show a primary HCI assay with CCCP titration. FIG. 2A is a graphic description of the primary HCI assay of EGFP-Parkin translocation. HeLa cells stably expressing GFP-Parkin were seeded with 1350 cells per well in 384-well plates (25 μL per well). Cells were allowed to attach overnight before drug was added 2× concentrated in a volume of 25 μL in triplicates. After 2 h, 50 μL of a 2× low-dose CCCP (yielding a final concentration of 3.5 μM CCCP) was added to all wells that contained test compounds and for the negative control. For positive control wells, CCCP was added in a final concentration of 10 μM. After 2 h incubation with CCCP, cells were fixed and labeled with Hoechst for at least 1 h before cells were imaged. […] Values were being normalized to negative and positive control values and plotted as % activity. Z′ was calculated for quality control. Positive controls were indicated in green, negative control wells in red. Drugs that lead to more than 50% activity are considered positive (blue).
Functional testing of compounds was performed using an established primary HCI assay for Parkin translocation, which correlates well with enzymatic activation (Fiesel et al., J. Cell Science (2014) 127:3488-3504; Fiesel et al., Human Mutation (2015) 36:774-786). In brief, 1400 HeLa cells stably expressing EGFP-Parkin were seeded into optical 384-well plates (Greiner BioOne) in 25 μL media and allowed to adhere for 40 h. Compounds 1, 2, 3, 4, and 31 were added to the plate as 2× concentrated stocks. Control wells were treated with equal volume of DMSO in media. After 2 h, unless otherwise stated, CCCP was added as 2× concentrated stock with a final assay concentration of 10 μM for PC wells and 3.5 μM for test and NC wells. This low dose of CCCP was experimentally determined by a dose response curve of CCCP to result in no Parkin translocation (FIG. 13). After another 2 h, cells were fixed in 4% paraformaldehyde for 10 min and stained with Hoechst 33342 (1:5000, Invitrogen) before plates were imaged and analyzed.
Image acquisition was performed on a BD Pathway 855 with the Attovision V1.6 software (BD Biosciences). Wells were imaged with a 20× objective using a 2×2 montage with laser autofocus. EGFP exposure time was 0.0175 sec, Hoechst 0.0015 sec. Raw images were not processed and directly analyzed using a build-in ‘RING—2 output’ algorithm. Values were exported and normalized using JMP 11 software and transferred to GraphPad Prism 7 for quality control, graphing and curve fitting for DRCs with a variable slope using four parameters. […] Values were normalized to both PC and NC values from 24 wells each per plate and the Z′ score was calculated. Plates with Z′<0.5 were repeated.

TA 98 = assay: Ames Test, strain TA 98; conditions: TA 98, positive control 0.1 μg/plate
Source text: (§1) The test used amino acid-dependent strains of Salmonella typhimurium and Escherichia coli to detect point mutations which involved substitution, addition or deletion of one or a few DNA base pairs. Point mutations were introduced in the histidine (Salmonella typhimurium) or the tryptophan (Escherichia coli) operon, making the tester strains incapable of producing these amino acids. The test detected mutations that revert the mutations present in the bacteria, restoring the functional capability to synthesize histidine or tryptophan. The revertant bacteria were detected by the ability to grow in the absence of the amino acid required by the parent test strain. A mutagenic potential of a tested compound was assessed by exposing these bacterial strains to different concentrations of the compounds and estimating number of revertant colonies grown in the absence (trace quantities) of the amino acid.
(§2) DMSO was used as the negative control.
(§3) For each experiment, tester strain cultures were grown overnight in Oxoid nutrient broth #2 at 37° C. with shaking at 235 rpm to a density of 1-2×10^9 colony forming units/mL (OD540˜2).
(§4) The tester strain (10 μL of night culture) was mixed with the test agent (10 µL of the DMSO stock) and GM liquid medium (30 μL). The obtained mixture was incubated at room temperature for 5 min in a sterile 1.5 mL tube. Then, to the tube was added 200 μL of molten top agar stored at 44° C. to prevent solidifying. After mixing with a pipette, the mixture was poured onto the surface of a GM agar plate (2.0 mL of GM agar per plate). After solidifying the top agar, the plate was inverted and incubated at 37° C. for 48 hours. Then, results were expressed as number of revertant colonies per plate.

TA 1537 = assay: Ames Test, strain TA 1537; conditions: TA 1537, positive control 7.5 μg/plate (row printed 50; shifted)
Source text: as §1, §2, §3, §4

CYP 2C9 = CYP 2C9 (Homo sapiens (Human), UniProt P11712); assay: P450-Glo CYP450 inhibition, CYP 2C9; assay type: in vitro ADME; conditions: human, P450-Glo Assay System (Promega), CYP 2C9 membranes, CYP 2C9, reference inhibitor 120 uM
Procedure: CYP450 inhibition profiling provides valuable information regarding any possible drug-drug interactions for a test compound.
All experiments were performed using P450-Glo™ Assay Systems (Promega) in accordance with the manufacturer's protocols. The P450-Glo™ Assays provide a luminescent readout-based method for measuring cytochrome P450 activity. A conventional cytochrome P450 reaction was performed by incubating the cytochrome P450 and a luminogenic cytochrome P450 substrate. The substrates in the P450-Glo™ assays are derivatives of beetle luciferin. The derivatives themselves are not substrates for luciferase but are converted by cytochrome P450s to luciferin, which in turn reacts with luciferase to produce light. The amount of light produced was directly proportional to cytochrome P450 activity. All test points were performed in quadruplicates. Control membranes (without CYPs) represented the Negative control (baseline).
The following reference compounds were used to assess CYP inhibition: […]

Parkin, sequence (O60260 whole entry): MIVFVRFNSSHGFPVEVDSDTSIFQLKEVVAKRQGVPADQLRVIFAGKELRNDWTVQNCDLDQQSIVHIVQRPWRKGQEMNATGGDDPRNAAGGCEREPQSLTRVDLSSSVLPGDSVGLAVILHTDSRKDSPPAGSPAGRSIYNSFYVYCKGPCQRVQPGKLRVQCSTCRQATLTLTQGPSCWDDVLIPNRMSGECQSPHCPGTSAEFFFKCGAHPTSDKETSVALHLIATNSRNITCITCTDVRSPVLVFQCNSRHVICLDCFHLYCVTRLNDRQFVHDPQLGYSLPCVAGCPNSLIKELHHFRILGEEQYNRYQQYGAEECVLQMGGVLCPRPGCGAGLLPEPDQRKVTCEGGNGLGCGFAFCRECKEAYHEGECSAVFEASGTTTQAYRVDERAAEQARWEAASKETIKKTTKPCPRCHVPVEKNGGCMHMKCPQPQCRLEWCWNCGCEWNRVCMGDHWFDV
CYP 2C9, sequence (P11712 whole entry): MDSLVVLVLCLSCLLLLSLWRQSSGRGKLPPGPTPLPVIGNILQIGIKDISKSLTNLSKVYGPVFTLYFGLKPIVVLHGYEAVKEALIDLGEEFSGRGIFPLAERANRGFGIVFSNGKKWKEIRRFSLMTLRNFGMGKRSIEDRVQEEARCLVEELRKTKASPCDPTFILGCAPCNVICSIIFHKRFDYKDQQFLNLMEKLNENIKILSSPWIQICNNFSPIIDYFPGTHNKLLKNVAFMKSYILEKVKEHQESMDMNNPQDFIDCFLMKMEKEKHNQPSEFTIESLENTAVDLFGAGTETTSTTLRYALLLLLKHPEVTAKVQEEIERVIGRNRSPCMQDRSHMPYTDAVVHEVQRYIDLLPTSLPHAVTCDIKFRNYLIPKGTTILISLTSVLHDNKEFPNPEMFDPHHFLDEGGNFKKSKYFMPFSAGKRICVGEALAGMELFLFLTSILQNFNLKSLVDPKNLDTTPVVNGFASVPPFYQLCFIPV

| EC50 (Parkin) [µM] | SMILES | also measured |
| --- | --- | --- |
| 0.938 | O=C(Cn1cnc2c1CCCC2)Nc1cnc(-c2ccccc2)nc1 [Compound 26] | – |
| 5 | O=C(Cn1ccnc1)Nc1ccc(CN2CCc3ccccc32)cc1 [Compound 9] | – |
| 5 | Cc1cc(NC(=O)Cn2ccnc2)ccc1-c1ccccc1 [Compound 30] | – |
| 0.366 | Cc1nc2c(c(N3CCCN(Cc4ccc(Cl)cc4)CC3)n1)CCCC2 [Compound 45] | – |
| 5 | O=C(Cn1ccnc1)Nc1ccc(C23CC4CC(CC(C4)C2)C3)cc1 [Compound 10] | – |
| 0.203 | c1ccc(CN2CCCN(c3ncnc4ncccc34)CC2)cc1 [Compound 46] | – |
| 0.272 | O=C(Cn1cnc2c1CCCC2)Nc1ccc(-c2ccccn2)cc1 [Compound 23] | – |
| > 10 | Cc1nc2c(c(N3CCN(C(=O)c4ccccc4)CC3)n1)CCCC2 [Compound 40] | – |
| 2 | O=C(Cn1ccnc1)Nc1ccc(-c2ccccc2)c(Cl)c1 [Compound 6] | – |
| 10 | O=C(Cc1ccncc1)Nc1ccc(-c2ccccc2)cc1 [Compound 20] | – |
| 0.28 | Cc1nc2c(c(N3CCCN(Cc4cccs4)CC3)n1)CCCC2 [Compound 43] | – |
| 5 | O=C(Cn1ccnc1)Nc1ccc(-c2ccccc2)c(C(F)(F)F)c1 [Compound 12] | – |
| – | O=[N+]([O-])c1ccc2c(c1)Cc1ccccc1-2 [2-nitrofluorene, reference compound] | Mean ± SD (TA 98): 7 ± 1.41 revertant colonies per plate |
| 0.707 | Cc1nc2c(c(N3CCCN(Cc4noc(C5CC5)n4)CC3)n1)CCCC2 [Compound 42] | – |
| 0.19 | Cc1ccnc(-c2ccc(NC(=O)Cn3cnc4c3CCCC4)cc2)n1 [Compound 27] | – |
| 10 | Cc1nccn1CC(=O)Nc1ccc(-c2ccccc2)cc1 [Compound 19] | – |
| 2 | O=C(Cn1ccnc1-c1ccccc1)Nc1ccc(-c2ccccc2)cc1 [Compound 29] | – |
| > 10 | COc1ccc(CN2CCCN(c3ncnc4c3CN(C)CC4)CC2)cc1 [Compound 36] | – |

| EC50 (Parkin) [µM] | SMILES | also measured |
| --- | --- | --- |
| 0.438 | Cc1nc2c(c(N3CCN(Cc4ccccc4)C(C)(C)C3)n1)CCCC2 [Compound 44] | – |
| – | Nc1c2ccccc2nc2ccccc12 [9-aminoacridine, reference compound] | Mean ± SD (TA 1537): 1119 ± 21.21 revertant colonies per plate |
| 5 | O=C(Cn1ccnc1-c1ccncc1)Nc1ccc(-c2ccccc2)cc1 [Compound 11] | – |
| 0.19 | Cc1nccc(-c2ccc(NC(=O)Cn3cnc4c3CCCC4)cc2)n1 [Compound 24] | – |
| 10 | Cc1nc2c(c(N3CCCN(Cc4csc(C)n4)CC3)n1)CCCC2 [Compound 35] | – |
| 5 | O=C(Cn1ccnc1)Nc1ccc(Oc2ccccc2)cc1 [Compound 14] | – |
| – | OC(Cn1cncn1)(Cn1cncn1)c1ccc(F)cc1F [fluconazole, reference compound] | inhibition at 120 µM (CYP 2C9): 84.5% |
| 5 | O=C(Cn1ccnc1)Nc1ccc(OCC2CCCCC2)cc1 [Compound 8] | – |
| 0.382 | O=C(Cn1cnc2c1CCCC2)Nc1ccc(-c2ccccc2F)nn1 [Compound 25] | – |
| 0.238 | O=C(Nc1ccc(-c2ccccc2)cc1)c1cn2c(n1)CCCC2 [Compound 21] | – |
| 5 | O=C(Cn1ccnc1)Nc1ccc(SC2CCCC2)cc1 [Compound 18] | – |
| 5 | CC(C)Cc1ccc(NC(=O)Cn2ccnc2)cc1 [Compound 17] | – |
| 5 | O=C(Cn1ccnc1)Nc1ccc(COC2CCCC2)cc1 [Compound 15] | – |
| 0.134 | Cc1cc(NC(=O)Cn2cnc3c2CCCC3)ccc1-c1ccncc1 [Compound 28] | – |
| 5 | O=C(Cn1ccnc1)Nc1nc(-c2ccccc2)co1 [Compound 13] | – |
| 0.246 | O=C(Cn1cnc2c1CCCC2)Nc1ccc(-c2ccccc2)cn1 [Compound 22] | – |
| 5 | N#Cc1ccc(Oc2ccc(NC(=O)Cn3ccnc3)cc2)cc1 [Compound 16] | – |

Source: US11401255B2, “Small molecule activators of Parkin enzyme function” (Mayo Foundation for Medical Education and Research, priority 2016, dated 2022)
